Data published in US10577363B2, “Substituted piperidine compounds” (EPIZYME, INC., priority 2014, dated 2020).
pIC50: −log10 of the molar value.

Tests used:
SMYD3 [1] = biological target: T1, SMYD3 (Homo sapiens (Human), UniProt Q9H7B4); experiment: SMYD3 biochemical assay (SPA, 3H-SAM methylation of MEKK2 protein substrate); conditions: read-out: SMYD3 Biochem IC50*
Summary of the method: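 Native full-length human SMYD3 (E. coli-expressed, tags removed) was preincubated with compound for 30 min at room temperature in 25 mM Tris-Cl pH 8.0, 1 mM TCEP, 0.005% BSG, 0.005% Tween 20. Reaction was started with 3H-SAM plus GST-MEKK2, quenched with 100 uM unlabeled SAM, and read by SPA scintillation counting.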

SMYD3 [2] = biological target: T1, SMYD3; experiment: SMYD3 cell assay (Trimethyl-MEKK2 In-Cell Western in 293T/17 cells); format: cell-based; conditions: read-out: SMYD3 Cell IC50*
Summary of the method: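 In-Cell Western ratio of trimethyl-Lys260 MEKK2 to anti-flag signal; percent inhibition from DMSO and maximum-inhibition controls, IC50 by non-linear regression, triplicates.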

T1 sequence (Q9H7B4 whole entry): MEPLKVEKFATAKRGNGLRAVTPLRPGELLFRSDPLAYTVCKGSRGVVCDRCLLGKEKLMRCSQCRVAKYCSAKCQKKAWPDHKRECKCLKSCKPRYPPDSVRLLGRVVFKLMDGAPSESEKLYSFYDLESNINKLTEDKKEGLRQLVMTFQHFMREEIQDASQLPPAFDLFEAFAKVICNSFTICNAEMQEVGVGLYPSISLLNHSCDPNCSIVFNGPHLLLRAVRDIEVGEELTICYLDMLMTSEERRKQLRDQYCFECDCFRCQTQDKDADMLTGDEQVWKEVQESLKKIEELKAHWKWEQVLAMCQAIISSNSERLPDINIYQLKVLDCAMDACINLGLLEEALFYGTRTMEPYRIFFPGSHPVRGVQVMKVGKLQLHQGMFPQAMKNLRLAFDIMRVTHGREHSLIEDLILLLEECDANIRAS

C[C@H]1C[C@@H](NC(=O)c2cc(C3CC3)on2)CCN1S(=O)(=O)N1CCC(N(C)CCO)CC1 [compound 780, 5-cyclopropyl-N-((2S,4S)-1-((4-((2-hydroxyethyl)(methyl)amino)piperidin-1-yl)sulfonyl)-2-methylpiperidin-4-yl)isoxazole-3-carboxamide]
pIC50 (SMYD3 [1]): 8.92
pIC50 (SMYD3 [2]): 7.62

CCCN1CCC(CS(=O)(=O)N2[C@@H]3CC[C@H]2C[C@@H](NC(=O)c2cc(C4CC4)on2)C3)CC1 [compound 781, 5-cyclopropyl-N-((1R,3r,5S)-8-(((1-propylpiperidin-4-yl)methyl)sulfonyl)-8-azabicyclo[3.2.1]octan-3-yl)isoxazole-3-carboxamide]
pIC50 (SMYD3 [1]): 8.91
pIC50 (SMYD3 [2]): 7.57

CN1CCC2(CC1)CN(S(=O)(=O)N1[C@@H]3CC[C@H]1C[C@@H](NC(=O)c1cc(C4CC4)on1)C3)C2 [compound 782, 5-cyclopropyl-N-((1R,3r,5S)-8-((7-methyl-2,7-diazaspiro[3.5]nonan-2-yl)sulfonyl)-8-azabicyclo[3.2.1]octan-3-yl)isoxazole-3-carboxamide]
pIC50 (SMYD3 [1]): 8.91
pIC50 (SMYD3 [2]): 7.52

C[C@H]1C[C@@H](NC(=O)c2cc(C3CC3)on2)CCN1S(=O)(=O)C1CCC(CN)C1 (stereo partly drawn) [compound 783, N-((2S,4S)-1-((3-(aminomethyl)cyclopentyl)sulfonyl)-2-methylpiperidin-4-yl)-5-cyclopropylisoxazole-3-carboxamide]
pIC50 (SMYD3 [1]): 8.91
pIC50 (SMYD3 [2]): 7.29

C[C@H]1C[C@@H](NC(=O)c2cc(C3CC3)on2)CCN1S(=O)(=O)C[C@@H]1CC[C@@H](N)C1 [compound 784, N-((2S,4S)-1-((((1R,3R)-3-aminocyclopentyl)methyl)sulfonyl)-2-methylpiperidin-4-yl)-5-cyclopropylisoxazole-3-carboxamide]
pIC50 (SMYD3 [1]): 8.89
pIC50 (SMYD3 [2]): 7.41

CCN1CCC(CS(=O)(=O)N2[C@@H]3CC[C@H]2C[C@@H](NC(=O)c2cc(C4CC4)on2)C3)CC1 [compound 785, 5-cyclopropyl-N-((1R,3r,5S)-8-(((1-ethylpiperidin-4-yl)methyl)sulfonyl)-8-azabicyclo[3.2.1]octan-3-yl)isoxazole-3-carboxamide]
pIC50 (SMYD3 [1]): 8.87
pIC50 (SMYD3 [2]): 7.36

CN[C@H]1CC[C@H](S(=O)(=O)N2[C@@H]3CC[C@H]2C[C@@H](NC(=O)c2cc(C4CC4)on2)C3)CC1 [compound 786, 5-cyclopropyl-N-((1R,3R,5S)-8-(((1r,4R)-4-(methylamino)cyclohexyl)sulfonyl)-8-azabicyclo[3.2.1]octan-3-yl)isoxazole-3-carboxamide]
pIC50 (SMYD3 [1]): 8.86
pIC50 (SMYD3 [2]): 7.45

CC(C)N1CCC(CS(=O)(=O)N2[C@@H]3CC[C@H]2C[C@@H](NC(=O)c2cc(C4CC4)on2)C3)CC1 [compound 787, 5-cyclopropyl-N-((1R,3r,5S)-8-(((1-isopropylpiperidin-4-yl)methyl)sulfonyl)-8-azabicyclo[3.2.1]octan-3-yl)isoxazole-3-carboxamide]
pIC50 (SMYD3 [1]): 8.86
pIC50 (SMYD3 [2]): 7.41

CCc1cc(C(=O)N[C@H]2C[C@H]3CC[C@@H](C2)N3S(=O)(=O)[C@H]2CC[C@H](NCCO)CC2)no1 [compound 788, 5-ethyl-N-((1R,3R,5S)-8-(((1r,4R)-4-((2-hydroxyethyl)amino)cyclohexyl)sulfonyl)-8-azabicyclo[3.2.1]octan-3-yl)isoxazole-3-carboxamide]
pIC50 (SMYD3 [1]): 8.85
pIC50 (SMYD3 [2]): 7.51

CCc1cc(C(=O)N[C@H]2C[C@H]3CC[C@@H](C2)N3S(=O)(=O)[C@H]2CC[C@H](N)CC2)no1 [compound 789, N-((1R,3R,5S)-8-(((1r,4R)-4-aminocyclohexyl)sulfonyl)-8-azabicyclo[3.2.1]octan-3-yl)-5-ethylisoxazole-3-carboxamide]
pIC50 (SMYD3 [1]): 8.80
pIC50 (SMYD3 [2]): 7.50

C[C@H]1CN(S(=O)(=O)[C@H]2CC[C@H](N)CC2)CC[C@H]1NC(=O)c1cc(C2CC2)on1 [compound 790, N-((3S,4R)-1-(((1r,4S)-4-aminocyclohexyl)sulfonyl)-3-methylpiperidin-4-yl)-5-cyclopropylisoxazole-3-carboxamide]
pIC50 (SMYD3 [1]): 8.74
pIC50 (SMYD3 [2]): 7.25

O=C(N[C@H]1C[C@H]2CC[C@@H](C1)N2S(=O)(=O)N1CCC(NCCc2ccccc2)CC1)c1cc(C2CC2)on1 [compound 791, 5-cyclopropyl-N-((1R,3r,5S)-8-((4-(phenethylamino)piperidin-1-yl)sulfonyl)-8-azabicyclo[3.2.1]octan-3-yl)isoxazole-3-carboxamide]
pIC50 (SMYD3 [1]): 8.74
pIC50 (SMYD3 [2]): 7.39

O=C(N[C@H]1C[C@H]2CC[C@@H](C1)N2S(=O)(=O)N1CCC(NCCO)CC1)c1cc(C2CC2)on1 [compound 792, 5-cyclopropyl-N-((1R,3r,5S)-8-((4-((2-hydroxyethyl)amino)piperidin-1-yl)sulfonyl)-8-azabicyclo[3.2.1]octan-3-yl)isoxazole-3-carboxamide]
pIC50 (SMYD3 [1]): 8.73
pIC50 (SMYD3 [2]): 7.35

CCc1cc(C(=O)N[C@H]2CCN(S(=O)(=O)N3CCC(N)CC3)[C@@H](C)C2)no1 [compound 793, N-((2S,4S)-1-((4-aminopiperidin-1-yl)sulfonyl)-2-methylpiperidin-4-yl)-5-ethylisoxazole-3-carboxamide]
pIC50 (SMYD3 [1]): 8.73
pIC50 (SMYD3 [2]): 7.58

O=C(N[C@H]1C[C@H]2CC[C@@H](C1)N2S(=O)(=O)N1CCC(NCCCC(F)(F)F)CC1)c1cc(C2CC2)on1 [compound 794, 5-cyclopropyl-N-((1R,3r,5S)-8-((4-((4,4,4-trifluorobutyl)amino)piperidin-1-yl)sulfonyl)-8-azabicyclo[3.2.1]octan-3-yl)isoxazole-3-carboxamide]
pIC50 (SMYD3 [1]): 8.73
pIC50 (SMYD3 [2]): 7.46

C[C@H]1C[C@@H](NC(=O)c2cc(C3CC3)on2)CCN1S(=O)(=O)CC[C@@H]1CCN(C)C1 [compound 795, 5-cyclopropyl-N-((2S,4S)-2-methyl-1-((2-((S)-1-methylpyrrolidin-3-yl)ethyl)sulfonyl)piperidin-4-yl)isoxazole-3-carboxamide]
pIC50 (SMYD3 [1]): 8.73
pIC50 (SMYD3 [2]): 7.56

CC1(N)CCN(S(=O)(=O)N2[C@@H]3CC[C@H]2C[C@@H](NC(=O)c2cc(C4CC4)on2)C3)CC1 [compound 796, N-((1R,3r,5S)-8-((4-amino-4-methylpiperidin-1-yl)sulfonyl)-8-azabicyclo[3.2.1]octan-3-yl)-5-cyclopropylisoxazole-3-carboxamide]
pIC50 (SMYD3 [1]): 8.72
pIC50 (SMYD3 [2]): 7.39

CCc1cc(C(=O)N[C@H]2C[C@H]3CC[C@@H](C2)N3S(=O)(=O)CC2CCN(C)CC2)no1 [compound 797, 5-ethyl-N-((1R,3r,5S)-8-(((1-methylpiperidin-4-yl)methyl)sulfonyl)-8-azabicyclo[3.2.1]octan-3-yl)isoxazole-3-carboxamide]
pIC50 (SMYD3 [1]): 8.72
pIC50 (SMYD3 [2]): 7.37

CN[C@H]1CC[C@@H](S(=O)(=O)N2[C@@H]3CC[C@H]2C[C@@H](NC(=O)c2cc(C4CC4)on2)C3)CC1 [compound 798, 5-cyclopropyl-N-((1R,3R,5S)-8-(((1s,4S)-4-(methylamino)cyclohexyl)sulfonyl)-8-azabicyclo[3.2.1]octan-3-yl)isoxazole-3-carboxamide]
pIC50 (SMYD3 [1]): 8.72
pIC50 (SMYD3 [2]): 7.52

CCc1cc(C(=O)N[C@H]2C[C@H]3CC[C@@H](C2)N3S(=O)(=O)N2CCC(N)CC2)no1 [compound 799, N-((1R,3r,5S)-8-((4-aminopiperidin-1-yl)sulfonyl)-8-azabicyclo[3.2.1]octan-3-yl)-5-ethylisoxazole-3-carboxamide]
pIC50 (SMYD3 [1]): 8.69
pIC50 (SMYD3 [2]): 7.46

CC1CN(S(=O)(=O)N2CC[C@H](NC(=O)c3cc(C4CC4)on3)C[C@@H]2C)CCC1N (stereo partly drawn) [compound 800, N-((2S,4S)-1-((4-amino-3-methylpiperidin-l-yl)sulfonyl)-2-methylpiperidin-4-yl)-5-cyclopropylisoxazole-3-carboxamide]
pIC50 (SMYD3 [1]): 8.66
pIC50 (SMYD3 [2]): 7.40

NC1C2CN(S(=O)(=O)N3[C@@H]4CC[C@H]3C[C@@H](NC(=O)c3cc(C5CC5)on3)C4)CC12 (stereo partly drawn) [compound 801, N-((1R,3r,5S)-8-((6-amino-3-azabicyclo[3.1.0]hexan-3-yl)sulfonyl)-8-azabicyclo[3.2.1]octan-3-yl)-5-cyclopropylisoxazole-3-carboxamide]
pIC50 (SMYD3 [1]): 8.66
pIC50 (SMYD3 [2]): 7.56

CNC1CCC(CS(=O)(=O)N2CC[C@H](NC(=O)c3cc(C4CC4)on3)C[C@@H]2C)C1 (stereo partly drawn) [compound 802, 5-cyclopropyl-N-((2S,4S)-2-methyl-1-(((3-(methylamino)cyclopentyl)methyl)sulfonyl)piperidin-4-yl)isoxazole-3-carboxamide]
pIC50 (SMYD3 [1]): 8.64
pIC50 (SMYD3 [2]): 7.57

CC1CC(N)CCN1S(=O)(=O)N1[C@@H]2CC[C@H]1C[C@@H](NC(=O)c1cc(C3CC3)on1)C2 (stereo partly drawn) [compound 803, N-((1R,3r,5S)-8-((4-amino-2-methylpiperidin-1-yl)sulfonyl)-8-azabicyclo[3.2.1]octan-3-yl)-5-cyclopropylisoxazole-3-carboxamide]
pIC50 (SMYD3 [1]): 8.64
pIC50 (SMYD3 [2]): 7.23

C[C@H]1C[C@@H](NC(=O)c2cc(C3CC3)on2)CCN1S(=O)(=O)N1CCC2(CCCN2)CC1 [compound 804, N-((2S,4S)-1-((1,8-diazaspiro[4.5]decan-8-yl)sulfonyl)-2-methylpiperidin-4-yl)-5-cyclopropylisoxazole-3-carboxamide]
pIC50 (SMYD3 [1]): 8.63
pIC50 (SMYD3 [2]): 7.22

CN(C)C1CCN(S(=O)(=O)N2[C@@H]3CC[C@H]2C[C@@H](NC(=O)c2cc(C4CC4)on2)C3)CC1 [compound 805, 5-cyclopropyl-N-((1R,3r,5S)-8-((4-(dimethylamino)piperidin-1-yl)sulfonyl)-8-azabicyclo[3.2.1]octan-3-yl)isoxazole-3-carboxamide]
pIC50 (SMYD3 [1]): 8.62
pIC50 (SMYD3 [2]): 7.27
